Values quoted from earlier work as cited in US20210400979A1, “ANTI-VIRAL FACE MASK AND FILTER MATERIALS” (priority 2020, published 2021).

What was measured:
[1] = system: RTCs of SARS-CoV (RNA-synthesizing activity); conditions: RTCs isolated from SARS-CoV infected cells, various Zn^2+ concentrations (FIG. 13A)

Molecule | water solubility (in words) | RNA-synthesizing activity of the RTCs of the virus [1]
zinc picolinate | moderately water soluble | –
[Zn+2] [Zn^2+] | – | efficiently inhibits
